# US11358711B2, “Tetracyclic heterocycle compounds useful as HIV integrase inhibitors” (Merck Sharp & Dohme Corp., priority 2019, dated 2022)
# Like-named read-outs stand apart in the source and are kept apart here.
# System: HIV-1 (NL4-3 strain)
# Test: Assay for inhibition of HIV replication (VIKING; MT4-gag-GFP reporter cell line)
# Type: cell-based
# Experimental: This assay is a kinetic assay that employs a reporter cell line (MT4-gag-GFP) to quantify the number of new cells infected in each round of replication.
# MT4-GFP cells (250,000 cells/ml) were bulk-infected with HIV-1 (NL4-3 strain) at low multiplicity of infection (MOI) in RPMI cell culture medium+10% FBS for 24 hours. Cells were then washed once in RPMI cell culture medium+10% FBS and resuspended in RPMI cell culture medium+0% or 10% or 100% normal human serum (NHS). Test compounds were serial-diluted in DMSO on an ECHO® liquid handler. The infected MT4-GFP cells were added to a 384-well poly-D-lysine coated black plate with clear bottom in which the diluted test compounds were placed. The cells were seeded at 8,000 cells per well and the final DMSO concentration was 0.4%. The infected cells (Green GFP cells) were quantified at both 24 and 48 hours post incubation using Acumen eX3. Viral reproductive ratio (R0) was determined using the number of infected cells at 48 hours divided by the number of infected cells at 24 hours. Percent viral growth inhibition was calculated by [1−(R−Rtripledrug)/(RDMSO−Rtripledrug)]*100. Compound potency IP or IC50 was determined by a 4-parameter dose response curve analysis. In vitro potency in the cell-based assay in the abscence of normal human serum (NHS) and the presence of 100% NHS.
# [1] = Human immunodeficiency virus 1, NL43, MT4-GFP cells infected with HIV-1 NL4-3, 0% normal human serum (NHS), read-out: VIKING IP50 (nM) with 0% NHS
# [2] = Human immunodeficiency virus 1, NL43, MT4-GFP cells infected with HIV-1 NL4-3, 100% normal human serum (NHS), read-out: VIKING IP50 (nM) with 100% NHS
# [3] = MT4-GFP cells infected with HIV-1 NL4-3, 0% normal human serum (NHS), read-out: VIKING IP50 (nM) with 0% NHS
# [4] = MT4-GFP cells infected with HIV-1 NL4-3, 100% normal human serum (NHS), read-out: VIKING IP50 (nM) with 100% NHS
Compound,IC50 [1],IC50 [2],IC50 [3],IC50 [4]
C[C@H]1COC2C3CCc4c(C(=O)NCc5cccc(Cl)c5F)c(=O)c(O)c(n43)C(=O)N21 (stereo partly drawn) [Compound 30],0.536 nM,838 nM,,
COC1CC2C3OCCN3C(=O)c3c(O)c(=O)c(C(=O)NCc4ccc(F)cc4F)c1n32 (stereo not drawn) [Compound 72],,,0.754 nM,8000 nM
C[C@@H]1CCOC2C3CCc4c(C(=O)NCc5ccc(F)cc5F)c(=O)c(O)c(n43)C(=O)N21 (stereo partly drawn) [Compound 60],0.934 nM,27.6 nM,,
C[C@H]1CN(S(C)(=O)=O)C2C3CCc4c(C(=O)NCc5cccc(Cl)c5F)c(=O)c(O)c(n43)C(=O)N21 (stereo partly drawn) [Compound 116],,,4.57 nM,195 nM
CC1C2C3CCc4c(C(=O)NCc5cccc(Cl)c5F)c(=O)c(O)c(n43)C(=O)N2C[C@@H]1C (stereo partly drawn) [Compound 102],,,1.05 nM,579 nM
O=C1c2c(O)c(=O)c(-c3cnn(Cc4ccc(F)cc4F)c3)c3n2C(CC3)C2OCCN12 (stereo not drawn) [Compound 46],34.5 nM,222 nM,,
